Experimental data as given in patent US6106744A, “Photochromic pyrano-fused naphthopyrans” (PPG Industries Ohio, Inc., priority 1997, dated 2000).

What was measured:
[1] = Photochromic response of test squares on an optical bench; format: physicochemical; details: for Bleach Rate T 1/2: time to one half the highest absorbance at room temperature (72° F., 22.2° C.) after removal of activating light; for Sensitivity ΔOD/min: first five (5) seconds of UV exposure, expressed per minute, 72° F. (22.2° C.), 0.15 to 0.20 mW/cm^2
Protocol: (§1) Testing was done with the photochromic compounds prepared in Examples 1, 2, 3 and 4 in the following manner. A quantity of each photochromic compound calculated to yield a 1.5×10^-3 molal solution was added to a flask containing 50 grams of a monomer blend of 4 parts ethoxylated bisphenol A dimethacrylate (BPA 2EO DMA), 1 part poly(ethylene glycol) 600 dimethacrylate, and 0.033 weight percent 2,2'-azobis(2-methyl propionitrile) (AIBN). Each photochromic compound was dissolved into the monomer blend by stirring and gentle heating. After a clear solution was obtained, it was poured into a flat sheet mold having the interior dimensions of 2.2 mm×6 inches (15.24 cm)×6 inches (15.24 cm). The mold was sealed and placed in a horizontal air flow, programmable oven programmed to increase the temperature from 40° C. to 95° C. over a 5 hour interval, hold the temperature at 95° C. for 3 hours, lower it to 60° C. over a 2 hour interval and then hold at 60° C. for 16 hours. After the mold was opened, the polymer sheet was cut using a diamond blade saw into 2 inch (5.1 centimeters) test squares.
The photochromic test squares prepared in Part A were tested for photochromic response on an optical bench. Prior to testing on the optical bench, the photochromic test squares were exposed to 365 nanometer ultraviolet light for about 15 minutes to activate the photochromic compounds and then placed in a 76° C. oven for about 15 minutes to bleach or inactivate the photochromic compounds. The test squares were then cooled to room temperature, exposed to fluorescent room lighting for at least 2 hours and then kept covered for at least 2 hours prior to testing on an optical bench maintained at 72° F. (22.2° C.). The bench was fitted with a 150 watt Xenon arc lamp, a remote controlled shutter, a copper sulfate bath acting as a heat sink for the arc lamp, a Schott WG-320 nm cut-off filter which removes short wavelength radiation; neutral density filter(s) and a sample holder in which the square to be tested was inserted. The power output of the optical bench, i.e., the dosage of light that the sample lens would be exposed to, was calibrated with a photochromic test square used as a reference standard. […] The UV-A detector was placed into the sample holder and the light output was measured. […]
A monitoring, collimated beam of light from a tungsten lamp was passed through the square at a small angle (approximately 30° ) normal to the square. After passing through the square, the light from the tungsten lamp was directed to a detector through Spectral Energy Corp. GM-200 monochromator set at the previously determined visible lambda max of the photochromic compound being measured. […]
Change in optical density (ΔOD) was determined by inserting a test square in the bleached state into the sample holder, adjusting the transmittance scale to 100% opening the shutter from the Xenon lamp to provide ultraviolet radiation to change the test square from the bleached state to an activated (i.e., darkened) state, measuring the transmittance in the activated state, and calculating the change in optical density according to the formula: ΔOD=log (100/%Ta), where %Ta is the percent transmittance in the activated state and the logarithm is to the base 10.
The Δ OD/Min, which represents the sensitivity of the photochromic compound's response to UV light, was measured over the first five (5) seconds of UV exposure, then expressed on a per minute basis. […]

[2] = lambda max (Vis) of activated form in test square polymerizates (Varian Cary 3 UV-Visible spectrophotometer); format: physicochemical; details: activated (colored) form in test square; BPA 2EO DMA / poly(ethylene glycol) 600 dimethacrylate polymer
Protocol: as §1
The Δ OD/Min, which represents the sensitivity of the photochromic compound's response to UV light, was measured over the first five (5) seconds of UV exposure, then expressed on a per minute basis. The saturation optical density (Δ OD@ Saturation) was taken under identical conditions as the Δ OD/Min, except UV exposure was continued for 15 minutes. The lambda max (Vis) is the wavelength in nanometers (nm) in the visible spectrum at which the maximum absorption of the activated (colored) form of the photochromic compound in a test square occurs. The lambda max (Vis) wavelength was determined by testing the photochromic test square polymerizates of Part A in a Varian Cary 3 UV-Visible spectrophotometer. The Bleach Rate (T 1/2) is the time interval in seconds for the absorbance of the activated form of the photochromic compound in the test squares to reach one half the highest absorbance at room temperature (72° F., 22.2° C.) after removal of the source of activating light.

For Cc1ccc2c3c(c4c(=O)oc(C(c5ccccc5)c5ccccc5)cc4c2c1)C=CC(c1ccccc1)(c1ccccc1)O3 [Example 1, 2,2-diphenyl-7-diphenylmethyl-10-methyl-2,5-dihydro-5-oxo-pyrano[3',4':3,4]naphtho[1,2-b]pyran], the “Bleach Rate T 1/2” value [1] was 0.833 min and the “lambda max (Vis)” value [2] was 492 nanometers.

With COc1ccc(C2(c3ccc(OC)cc3)C=Cc3c4c(c5cc(C)ccc5c3O2)C=C(C(c2ccccc2)c2ccccc2)OC4)cc1 [Example 3, 2,2-di(4-methoxyphenyl)-7-diphenylmethyl-10-methyl-2,5-dihydro-pyrano[3',4':3,4]naphtho[1,2-b]pyran] the “Sensitivity ΔOD/min” value [1] was 0.33 ΔOD/min, the “Bleach Rate T 1/2” value [1] was 3.03 min and the “lambda max (Vis)” value [2] was 569 nanometers.

In the case of Cc1ccc2c3c(c4c(c2c1)C=C(C(c1ccccc1)c1ccccc1)OC4)C=CC(c1ccccc1)(c1ccc(N2CCOCC2)cc1)O3 (centres unmarked) [Example 4, 2-phenyl-2-(4-morpholinophenyl)-7-diphenylmethyl-10-methyl-2,5-dihydro-pyrano[3',4':3,4]naphtho[1,2-b]pyran], the “Sensitivity ΔOD/min” value [1] is reported as 0.39 ΔOD/min, the “Bleach Rate T 1/2” value [1] is reported as 4.68 min and the “lambda max (Vis)” value [2] is reported as 592 nanometers.
